This is an account of results in ChEMBL document CHEMBL1141871, “Binding of amine-substituted N1-benzenesulfonylindoles at human 5-HT6 serotonin receptors” (Bioorg Med Chem Lett, 2005).

This assay deals with 5-hydroxytryptamine receptor 6 (Homo sapiens, UniProt P50406). In words: Displacement of [3H]LSD from human 5HT6 receptor expressed in HEK293 cells. The format is cell-based.
5-hydroxytryptamine receptor 6, sequence (P50406 whole entry): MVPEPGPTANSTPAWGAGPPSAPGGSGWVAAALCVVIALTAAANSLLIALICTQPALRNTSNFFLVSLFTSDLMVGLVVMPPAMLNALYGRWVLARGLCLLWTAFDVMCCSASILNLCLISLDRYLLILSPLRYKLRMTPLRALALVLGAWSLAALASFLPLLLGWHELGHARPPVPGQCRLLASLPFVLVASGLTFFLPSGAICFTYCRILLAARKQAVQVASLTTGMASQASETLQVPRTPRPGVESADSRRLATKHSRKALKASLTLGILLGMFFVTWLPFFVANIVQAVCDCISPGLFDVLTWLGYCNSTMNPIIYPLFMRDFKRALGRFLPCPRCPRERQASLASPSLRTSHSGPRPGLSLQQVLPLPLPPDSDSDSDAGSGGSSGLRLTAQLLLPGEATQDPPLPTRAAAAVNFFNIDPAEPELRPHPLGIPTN
`Nc1ccc(S(=O)(=O)n2ccc3ccccc32)cc1` had a Ki of 10 nM. In the case of `Nc1ccc(S(=O)(=O)n2ccc3c(N4CCNCC4)cccc32)cc1` it was 0.4 nM; in that of `CNc1cccc2c1ccn2S(=O)(=O)c1ccc(N)cc1`, 21 nM; in that of `CNc1cc(NC)c2ccn(S(=O)(=O)c3ccccc3)c2c1`, 26 nM. The same measure for `c1cc(N2CCNCC2)c2cc[nH]c2c1`: 2700 nM; for `CNc1ccc2ccn(S(=O)(=O)c3ccc(N)cc3)c2c1`: 7 nM; for `Nc1ccc(S(=O)(=O)n2ccc3c([N+](=O)[O-])cc([N+](=O)[O-])cc32)cc1`: 980 nM.

On to `CNc1cc(NC)c2ccn(S(=O)(=O)c3ccc(N)cc3)c2c1`, for which the affinity corresponds to a Ki of 1.9 nM.
